Each compound was assayed against T1, EGFR (Homo sapiens, UniProt P00533) (assay: Biochemical EGFR Assay). Conditions: protocol P.167.
T1 construct: endogenous in cells; host or cells: A431 cells (lysate, captured with SUMO1 anti-EGFR antibody)
Parameters: concentration or dose not given beside the values
Summary of the method: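 Readout is ABTS absorbance at 410 nm after anti-phosphotyrosine and HRP-antibody detection of EGFR autophosphorylation. The kinase was immunocaptured from A431 lysate, exposed 30 min to test compound diluted 1:10 in TBS, then phosphorylated for 5 min with ATP/MnCl2 before an EDTA stop.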

T1 sequence (P00533 25-1210): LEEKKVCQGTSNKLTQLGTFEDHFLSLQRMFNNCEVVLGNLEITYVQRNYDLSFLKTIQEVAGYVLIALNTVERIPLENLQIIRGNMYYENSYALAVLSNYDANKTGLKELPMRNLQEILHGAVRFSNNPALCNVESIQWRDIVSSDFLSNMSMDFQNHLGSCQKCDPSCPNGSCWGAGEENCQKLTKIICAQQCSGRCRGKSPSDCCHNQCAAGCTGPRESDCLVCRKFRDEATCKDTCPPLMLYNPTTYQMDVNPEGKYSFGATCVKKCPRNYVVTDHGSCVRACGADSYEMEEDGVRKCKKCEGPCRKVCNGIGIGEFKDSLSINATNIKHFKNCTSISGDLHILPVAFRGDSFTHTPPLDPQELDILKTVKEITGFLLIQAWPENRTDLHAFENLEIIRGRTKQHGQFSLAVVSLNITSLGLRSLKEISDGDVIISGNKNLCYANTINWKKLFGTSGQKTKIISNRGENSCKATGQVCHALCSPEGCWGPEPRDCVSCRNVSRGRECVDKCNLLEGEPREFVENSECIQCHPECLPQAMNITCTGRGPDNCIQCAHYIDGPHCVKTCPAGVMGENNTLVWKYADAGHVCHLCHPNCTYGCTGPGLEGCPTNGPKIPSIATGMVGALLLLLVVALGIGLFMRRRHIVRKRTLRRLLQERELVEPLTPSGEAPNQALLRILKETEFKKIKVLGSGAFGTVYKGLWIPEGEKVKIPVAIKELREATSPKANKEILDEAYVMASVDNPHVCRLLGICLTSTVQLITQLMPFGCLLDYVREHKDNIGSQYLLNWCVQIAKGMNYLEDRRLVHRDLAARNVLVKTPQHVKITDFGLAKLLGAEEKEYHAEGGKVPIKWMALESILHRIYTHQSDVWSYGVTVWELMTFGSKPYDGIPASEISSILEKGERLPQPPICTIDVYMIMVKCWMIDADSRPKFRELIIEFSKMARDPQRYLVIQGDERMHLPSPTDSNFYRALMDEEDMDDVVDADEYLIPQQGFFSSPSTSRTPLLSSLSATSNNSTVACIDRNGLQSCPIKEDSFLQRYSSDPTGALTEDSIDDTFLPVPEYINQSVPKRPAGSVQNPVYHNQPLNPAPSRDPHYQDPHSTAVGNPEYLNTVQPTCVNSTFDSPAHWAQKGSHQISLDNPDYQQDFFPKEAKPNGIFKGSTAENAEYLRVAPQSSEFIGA

Going from `O=C1Nc2ccc(S(=O)(=O)N3CCOCC3)cc2C1=Cc1cccc(OCc2ccccc2)c1` [10739/F03] to `O=C1Nc2ccc(CCCl)cc2C1=Cc1cccc(OCc2ccccc2)c1` [10739/G03], the “Biochem EGFR % Inhibition (P.167)” value rises from −10.8% to 2.4%.

First: O=C1Nc2ccc(CCCl)cc2C1=Cc1ccc(O)cc1Cl [10739/G06]
Second: O=C1Nc2ccc(CCCl)cc2C1=Cc1ccc(CO)o1 [10739/G11]
The “Biochem EGFR % Inhibition (P.167)” value of the first is lower: −31.2% for the first, −23.2% for the second.

First: COc1ccc(Oc2cccc(C=C3C(=O)Nc4ccc(S(=O)(=O)Nc5ccc(C(F)(F)F)cc5)cc43)c2)cc1 [10739/E08]
Second: O=C1Nc2ccc(S(=O)(=O)Nc3ccc(C(F)(F)F)cc3)cc2C1=Cc1cccc(OCc2ccccc2)c1 [10739/E03]
The “Biochem EGFR % Inhibition (P.167)” value of the first is lower: −17.4% for the first, 4.9% for the second.

First: O=C1Nc2ccc(S(=O)(=O)Nc3ccc(C(F)(F)F)cc3)cc2C1=Cc1ccc(O)cc1Cl [10739/E06]
Second: O=C1Nc2ccc(S(=O)(=O)Nc3ccc(C(F)(F)F)cc3)cc2C1=Cc1ccoc1 [10739/E10]
The “Biochem EGFR % Inhibition (P.167)” value of the first is higher: 33.5% for the first, 17.5% for the second.

First: O=C1Nc2ccc(S(=O)(=O)N3CCOCC3)cc2C1=Cc1cc(O)c(O)c(O)c1 [10739/F07]
Second: CNS(=O)(=O)c1ccc2c(c1)C(=Cc1cc(O)c(O)c(O)c1)C(=O)N2 [10739/D07]
The “Biochem EGFR % Inhibition (P.167)” value of the first is higher: 62.4% for the first, 21.1% for the second.

First: Cc1c(Br)ccc2c1C(=Cc1ccoc1)C(=O)N2 [10739/C10]
Second: COc1ccc(C=C2C(=O)Nc3ccc(Br)c(C)c32)cc1C [10739/C02]
The “Biochem EGFR % Inhibition (P.167)” value of the first is lower: −7.0% for the first, −1.7% for the second.

Compared with `CNS(=O)(=O)c1ccc2c(c1)C(=Cc1ccc(OC)c(C)c1)C(=O)N2` [10739/D02], `COc1ccc(C=C2C(=O)Nc3ccc(S(=O)(=O)Nc4ccc(C(F)(F)F)cc4)cc32)cc1C` [10739/E02] is lower in “Biochem EGFR % Inhibition (P.167)” value: 2.6% for the first, −8.3% for the second.

First: CN(C)CCCOc1ccc(C=C2C(=O)Nc3ccc(S(=O)(=O)Nc4ccc(C(F)(F)F)cc4)cc32)cc1 [10739/E09]
Second: CNS(=O)(=O)c1ccc2c(c1)C(=Cc1ccc(OCc3ccccc3)cc1)C(=O)N2 [10739/D04]
The “Biochem EGFR % Inhibition (P.167)” value of the first is higher: 15.2% for the first, −6.4% for the second.

Going from `COc1ccc(Oc2cccc(C=C3C(=O)Nc4ccc(Br)c(C)c43)c2)cc1` [10739/C08] to `COc1ccc(Oc2cccc(C=C3C(=O)Nc4ccc(I)cc43)c2)cc1` [10739/B08], the “Biochem EGFR % Inhibition (P.167)” value rises from −1.7% to 19.8%.

Compared with `Cc1c(Br)ccc2c1C(=Cc1cccc(OCc3ccccc3)c1)C(=O)N2` [10739/C03], `Cc1c(Br)ccc2c1C(=Cc1ccc(OCc3ccccc3)cc1)C(=O)N2` [10739/C04] is lower in “Biochem EGFR % Inhibition (P.167)” value: 18.3% for the first, 1.5% for the second.

Going from `O=C1Nc2c(Br)cc(Br)cc2C1=Cc1ccoc1` [10739/A10] to `O=C1Nc2ccc(CCCl)cc2C1=Cc1ccoc1` [10739/G10], the “Biochem EGFR % Inhibition (P.167)” value falls from 20.7% to −38.1%.

Compared with `O=C1Nc2ccc(S(=O)(=O)N3CCOCC3)cc2C1=Cc1ccc(CO)o1` [10739/F11], `O=C1Nc2ccc(S(=O)(=O)N3CCOCC3)cc2C1=Cc1ccc(O)cc1Cl` [10739/F06] is higher in “Biochem EGFR % Inhibition (P.167)” value: −38.5% for the first, −15.3% for the second.

Going from `COc1ccc(Oc2cccc(C=C3C(=O)Nc4c(Br)cc(Br)cc43)c2)cc1` [10739/A08] to `Cc1c(Br)cc(Br)c2c1C(=Cc1ccc(Cl)c(Cl)c1)C(=O)N2` [10738/H08], the “Biochem EGFR % Inhibition (P.167)” value falls from 6.2% to −12.1%.

Going from `O=C1Nc2ccc(I)cc2C1=CC1COc2ccccc2O1` (stereo not shown) [10739/B05] to `O=C1Nc2ccc(I)cc2C1=Cc1ccc(CO)o1` [10739/B11], the “Biochem EGFR % Inhibition (P.167)” value falls from 32.0% to −4.2%.

Source: US20020026053A1, “Novel 3-(substituted) -2- indolinones compounds and use thereof as inhibitors of protein kinase activity” (priority 1997, published 2002)
